# Data published in patent publication US6410054B1, “Immediate release eplerenone compositions” (G. D. Searle & Co., priority 1998, dated 2002).
# Legend:
# [1] = Single dose study: plasma pharmacokinetics of eplerenone, open lactone ring form, spironolactone; settings: for half-life / AUC(0-t) / Cmax / MRT / Tmax / concentration at 0.5 h / concentration at 1 h / concentration at 2 h / concentration at 3 h / concentration at 4 h / concentration at 6 h / concentration at 8 h / concentration at 12 h / concentration at 16 h / concentration at 24 h / concentration at 28 h / concentration at 32 h / concentration at 48 h / concentration at 72 h / concentration at 96 h: male, human, plasma, po
# Procedure: The pharmacokinetics, safety and antialdosterone activity of single 10, 50, 100, 300 and 1000 mg oral doses of eplerenone were evaluated in a single-center, randomized, double-blind, placebo-controlled study.
# The study employed seven parallel dose groups of eight healthy male humans.
# The eplerenone capsules administered corresponded to the capsules (or combinations of the capsules) disclosed in Examples 4, 5, 7 and 8 above. The placebo was a conventional capsule containing lactose. […] The fludrocortisone used in the study consisted of commercially available fludrocortisone tablets (Florinef®, Squibb BV).
# The subjects, who underwent a ten hour food fast prior to administration of the dose, received a single oral dose of one of the study medications together with about 180 mL of water at 0800 hours. […] Each dose of fludrocortisone was administered with 150 mL of water except for the 1.0 mg dose which was administered with 200 mL of water.
# The plasma samples collected from subjects dosed with eplerenone were assayed for concentrations of eplerenone and the open lactone ring form of eplerenone. […] A subset of plasma samples was also assayed for testosterone levels. The urine collected was analyzed to determine concentrations and amounts of eplerenone and the open lactone ring form of eplerenone, the amount of sodium and potassium excreted, and the urinary log10 (sodium/potassium) ratio.
# [2] = Multiple dose study: plasma pharmacokinetics and urinary excretion; assay type: in vivo, humans; settings: for AUC / Cmax / Tmax / half-life: male, human, plasma, oral; for half-life: read-out: T½ (converted)
# Procedure: Multiple oral dose tolerability and the pharmacokinetics of several dosages of eplerenone were evaluated in a double-blind, randomized, placebo-controlled, rising oral dose, sequential panel study of 40 healthy male subjects (five groups of eight subjects). The study medication was administered in […] sequential dose panels, with each panel including eplerenone, spironolactone and placebo. […] The 100 mg and 200 mg dose capsules corresponded to those described in Examples 7 and 8, respectively. Following a 48-hour interval, the study drug was administered once a day for 11 days. Antialdosterone activity was determined following a fludrocortisone challenge on Days 12-13.
# [3] = 100 mg, eplerenone 100 mg Dose, Multiple Dose
# [4] = 100 mg, eplerenone 100 mg Dose, Single Dose
# [5] = 300 mg, eplerenone 300 mg Dose, Multiple Dose
# [6] = 300 mg, eplerenone 300 mg Dose, Single Dose
# [7] = 1000 mg, eplerenone 1000 mg Dose, Multiple Dose
# [8] = 1000 mg, eplerenone 1000 mg Dose, Single Dose
smiles,measurement,setting,value
"COC(=O)C1CC2=CC(=O)CCC2(C)C23OC2CC2(C)C(CC[C@@]24CCC(=O)O4)C13 (stereo partly drawn) [eplerenone, methyl hydrogen 9,11α-epoxy-17α-hydroxy-3-oxopregn-4-ene-7α,21-dicarboxylate, γ-lactone]",half-life,[1]; 100 mg,4.9 h
same,AUC(0-t),[1]; 300 mg,18.5 µg·h/mL
same,Cmax,[1]; 300 mg,2.97 µg/mL
same,MRT,[1]; 300 mg,5.5 h
same,Tmax,[1]; 300 mg,1.5 h
same,concentration at 0.5 h,[1]; 300 mg,1.62 µg/mL
same,concentration at 1 h,[1]; 300 mg,2.68 µg/mL
same,concentration at 2 h,[1]; 300 mg,2.77 µg/mL
same,concentration at 3 h,[1]; 300 mg,2.23 µg/mL
same,concentration at 4 h,[1]; 300 mg,1.95 µg/mL
same,concentration at 6 h,[1]; 300 mg,1.27 µg/mL
same,concentration at 8 h,[1]; 300 mg,0.843 µg/mL
same,concentration at 12 h,[1]; 300 mg,0.333 µg/mL
same,concentration at 16 h,[1]; 300 mg,0.142 µg/mL
same,concentration at 24 h,[1]; 300 mg,0.0383 µg/mL
same,concentration at 28 h,[1]; 300 mg,0.0211 µg/mL
same,concentration at 32 h,[1]; 300 mg,0.0113 µg/mL
same,concentration at 48 h,[1]; 300 mg,0.0017 µg/mL
same,concentration at 72 h,[1]; 300 mg,0 µg/mL
same,concentration at 96 h,[1]; 300 mg,0 µg/mL
same,half-life,[1]; 300 mg,3.7 h
same,AUC(0-t),[1]; 1000 mg,56.4 µg·h/mL
same,Cmax,[1]; 1000 mg,7.26 µg/mL
same,MRT,[1]; 1000 mg,7 h
same,Tmax,[1]; 1000 mg,2.5 h
same,concentration at 0.5 h,[1]; 1000 mg,3.18 µg/mL
same,concentration at 1 h,[1]; 1000 mg,5.26 µg/mL
same,concentration at 2 h,[1]; 1000 mg,5.94 µg/mL
same,concentration at 3 h,[1]; 1000 mg,6.81 µg/mL
same,concentration at 4 h,[1]; 1000 mg,6.22 µg/mL
same,concentration at 6 h,[1]; 1000 mg,4.15 µg/mL
same,concentration at 8 h,[1]; 1000 mg,2.83 µg/mL
same,concentration at 12 h,[1]; 1000 mg,1.34 µg/mL
same,concentration at 16 h,[1]; 1000 mg,0.647 µg/mL
same,concentration at 24 h,[1]; 1000 mg,0.208 µg/mL
same,concentration at 28 h,[1]; 1000 mg,0.107 µg/mL
same,concentration at 32 h,[1]; 1000 mg,0.0617 µg/mL
same,concentration at 48 h,[1]; 1000 mg,0.0223 µg/mL
same,concentration at 72 h,[1]; 1000 mg,0.0014 µg/mL
same,concentration at 96 h,[1]; 1000 mg,0 µg/mL
same,half-life,[1]; 1000 mg,15.1 h
same,relationship between eplerenone dose and plasma concentration,[1]; single 10-1000 mg oral doses,linear relationship
same,dose proportionality of plasma concentrations and dose-adjusted AUC,"[2]; 100 mg to 1000 mg, single or multiple doses",lack of dose proportionality
same,plasma concentrations at 24 hours postdose,"[2]; all dosing groups (100, 300, 1000 mg)",detectable
same,AUC,[2]; [3],11.8 µg·h/mL
same,Cmax,[2]; [3],1.9 µg/mL
same,Tmax,[2]; [3],1.1 h
same,half-life,[2]; [3],4 h
same,AUC,[2]; [4],11.3 µg·h/mL
same,Cmax,[2]; [4],1.75 µg/mL
same,Tmax,[2]; [4],1.8 h
same,half-life,[2]; [4],3.9 h
same,AUC,[2]; [5],26.5 µg·h/mL
same,Cmax,[2]; [5],3.58 µg/mL
same,Tmax,[2]; [5],1.8 h
same,half-life,[2]; [5],4.6 h
same,AUC,[2]; [6],23.9 µg·h/mL
same,Cmax,[2]; [6],3.23 µg/mL
same,Tmax,[2]; [6],2.4 h
same,half-life,[2]; [6],4.6 h
same,AUC,[2]; [7],63.2 µg·h/mL
same,Cmax,[2]; [7],7.39 µg/mL
same,Tmax,[2]; [7],1.4 h
same,half-life,[2]; [7],6.2 h
same,AUC,[2]; [8],62.1 µg·h/mL
same,Cmax,[2]; [8],6.88 µg/mL
same,Tmax,[2]; [8],2 h
same,half-life,[2]; [8],8.7 h
same,accumulation,[2]; once a day for 11 days,no significant or dose-related accumulation
